Laboratory results: patent publication US20040028749A1, “Treating inflammation and associated complications” (priority 2000, published 2004)

Biological target: MPO (Homo sapiens, UniProt P05164)
Experiment: Stopped-flow kinetics of NO with MPO
Format: biochemical
Set-up: MPO was initially purified from detergent extracts of human leukocytes; from tissue; host or cells: human leukocytes (detergent extracts)
Method: […] EPO was isolated from porcine whole blood obtained fresh at the slaughterhouse as described by Jorg et al. (1982) Biochim Biophys Acta 701:185-191. EPO was assayed by guaiacol oxidation (see Klebanoff et al. (1984) Methods Enzymol. 105:399-403). […] The concentration of the MPO dimer was calculated as half the indicated concentration of heme-like chromophore. Bovine LPO was obtained from Worthington Biochemistry Corporation (Lakewood, N.J.) and used without further purification.
To examine the kinetics of interaction between NO and MPO Compounds I and II, stopped-flow spectroscopy was used. The kinetics of Compound II formation and decay in the absence and presence of different NO concentrations were performed using a dual syringe stopped-flow instrument obtained from Hi-Tech Ltd (model SF-51). Measurements were carried out under anaerobic atmosphere, at 25° C. and monitored at 455 nm (an isosbestic point of Compound I and MPO ground state) following rapid mixing of equal volumes of an H202-containing buffer solution and an MPO solution that contained different NO concentrations. The time course of absorbance change was fit to either single or double exponential functions as indicated. The rate constants for the formation (kon) and decay (koff) of the MPO-Fe(III)-NO complex in the presence of plasma levels of the alternative substrate Cl^− (100 mM) were determined by monitoring absorbance change at 430 nm at 10° C. […]
Rapid kinetic studies were initially performed under Cl^− free conditions using 2 co-substrates, a fixed (low) level of H2O2 and variable levels of NO. […] The subsequent decrease in absorbance at 455 nm observed was also fit to a single exponential function with a rate constant of […] and was attributed to the decay of compound II.
(An anaerobic solution containing sodium phosphate buffer (200 mM, pH 7.0) supplemented with H2O2 (20 μM) was rapidly mixed with an equal volume of buffer containing 0.86 μM of MPO-Fe(III) and differing concentrations of NO at 25° C.) NO was readily used as a one e^− substrate by Compound I, as indicated by the rapid buildup of MPO Compound II. […]
In a parallel series of experiments, the influence of NO on the kinetics of MPO Compound II buildup, duration, and decay during steady-state catalysis in the presence of plasma levels of the competing substrate Cl^− was examined. Reactions were again performed under anaerobic conditions and the absorbance change at 455 nm monitored following rapid mixing of enzyme and various concentrations of NO (2.5, 12.5, 25 and 50 μM final) in the presence of H202 (10 μM final) and Cl^− (100 mM final). Anaerobic spectra of MPO-Fe(III) were recorded at 25° C. in septum-sealed quartz cuvettes that were equipped with a quick-fit joint for attachment to a vacuum system. […]

Sequence of MPO (P05164 279-745 limits assumed): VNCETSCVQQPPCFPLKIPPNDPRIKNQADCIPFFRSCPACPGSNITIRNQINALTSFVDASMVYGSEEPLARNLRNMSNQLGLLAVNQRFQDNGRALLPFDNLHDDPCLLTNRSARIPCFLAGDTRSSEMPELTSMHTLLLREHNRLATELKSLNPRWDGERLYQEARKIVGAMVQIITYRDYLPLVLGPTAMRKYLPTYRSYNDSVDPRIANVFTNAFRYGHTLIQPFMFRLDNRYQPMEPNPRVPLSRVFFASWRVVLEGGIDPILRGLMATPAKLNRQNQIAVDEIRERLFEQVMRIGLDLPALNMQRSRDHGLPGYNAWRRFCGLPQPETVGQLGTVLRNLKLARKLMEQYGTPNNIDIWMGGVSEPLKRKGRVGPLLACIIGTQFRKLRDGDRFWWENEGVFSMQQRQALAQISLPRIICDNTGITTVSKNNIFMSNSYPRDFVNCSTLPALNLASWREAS
Sequence of MPO (P05164 165-273 limits assumed): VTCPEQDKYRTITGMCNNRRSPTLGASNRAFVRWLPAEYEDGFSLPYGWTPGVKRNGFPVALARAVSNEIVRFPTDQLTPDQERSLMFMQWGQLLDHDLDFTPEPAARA

**Q.** With `[N]=O` [NO, nitric oxide] as the compound, how does the “enhancement of rate of MPO Compound II accumulation” value (10 μM H2O2, Cl^− free, 25° C.) read?
**A.** The value was about 20 fold.

**Q.** And the koff (100 mM Cl^−, 11° C., read-out: koff for NO binding to MPO-Fe(III))?
**A.** Its koff is 22.3 s⁻¹.

**Q.** And the kon (100 mM Cl^−, 11° C., read-out: kon for NO binding to MPO-Fe(III))?
**A.** Its kon is 150000 M⁻¹ s⁻¹.

**Q.** What about the “second order rate constant of MPO Compound II decay” value (Cl^− free, 25° C.) of the same compound?
**A.** Its value is 8×10^3 M^−1S^−1.
